Among the data in patent publication US5552402A, “Five-membered heteroaromatic compounds as 5-HT receptor agonists” (Merck, Sharp & Dohme Ltd., priority 1994, dated 1996) are EC50 values, retold here.

The term EC50 denotes the concentration needed to bring the measured effect to its halfway point.

Counter-ions that a name gives are not always drawn.

The target of this assay is T1, 5-HT1 -like receptor (Oryctolagus cuniculus, UniProt P49144).
T1 construct: contraction of the saphenous vein of New Zealand White rabbits; from tissue; host or cells: saphenous vein of New Zealand White rabbits
The assay is described as follows: Agonist activity at 5-HT1-like receptor: contraction of the saphenous vein of New Zealand White rabbits. As to conditions: rabbit saphenous vein; from plots of percentage 5-HT (1 μM) response against concentration of agonist; read-out: EC50 (agonist potency, contraction of saphenous vein). Here is the method: The activity of test compounds as agonists of the 5-HT1 -like receptor was measured in terms of their ability to mediate contraction of the saphenous vein of New Zealand White rabbits, using the procedure described in Arch. Pharm., 1990, 342, 111. Agonist potencies were calculated as EC50 values, from plots of percentage 5-HT (1 μM) response against the concentration of the agonist.

T1 sequence (P49144 whole entry): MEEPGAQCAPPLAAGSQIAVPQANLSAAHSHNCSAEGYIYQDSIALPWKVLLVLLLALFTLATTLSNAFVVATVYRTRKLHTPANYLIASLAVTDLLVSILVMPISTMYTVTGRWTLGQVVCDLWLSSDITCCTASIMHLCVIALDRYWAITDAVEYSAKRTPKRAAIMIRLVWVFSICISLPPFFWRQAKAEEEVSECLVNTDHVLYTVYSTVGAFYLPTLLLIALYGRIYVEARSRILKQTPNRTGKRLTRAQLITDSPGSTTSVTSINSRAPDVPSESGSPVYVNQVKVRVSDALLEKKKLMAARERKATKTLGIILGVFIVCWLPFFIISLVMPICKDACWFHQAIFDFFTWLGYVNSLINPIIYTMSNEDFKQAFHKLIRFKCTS

For `c1cc2[nH]cc(CCCN3CCNCC3)c2cc1-n1cnnc1` [Example 4, 1-(3-[5-(1,2,4-Triazol-4-yl)-1H-indol-3-yl]propyl)-4-(H)-piperazine. 3.5 Hydrogen Oxalate], the EC50 is below 5 µM.

With `CN1CCN(CCCc2c[nH]c3ccc(-n4cnnc4)cc23)CC1` [Example 5, 1-(3-[5-(1,2,4-Triazol-4-yl)-1H-indol-3-yl]propyl)-4-(methyl)piperazine. 3.5 Hydrogen Oxalate Monohydrate], the EC50 is below 5 µM.
